“Also recorded” adds a separate entry of the source.
How the values were obtained:
Tdp1 = Tdp1 (Homo sapiens, UniProt Q9NUW8); assay: Real-time detection of Tdp1 activity (fluorophore-quencher oligonucleotide biosensor); assay type: biochemical; conditions: 1.5 nM purified Tdp1, 50 nM biosensor, 26 °C, three independent experiments; read-out: IC50 (inhibition of Tdp-1)
Description: Previously, we designed a real-time oligonucleotide biosensor based on the capability of Tdp1 to remove fluorophore quenchers from the 3′ end of DNA [27]. The single-stranded substrate was a 16-mer oligonucleotide containing both a 5′-FAM fluorophore donor and a quenching 3′-BHQ moiety. When the quencher is removed by Tdp1, FAM fluorescence flares up and can be detected by a fluorimeter. Fluorescence intensity diminishes in the presence of an inhibitor; curves of the obtained Tdp1 activity versus inhibitor concentration can be used to calculate IC50 values. We also investigated some structurally related compounds obtained by previously developed methods; these compounds feature a modification either in a carbohydrate or heterocyclic moiety (Table 1).
This procedure was reported in our previous work. The approach consists of fluorescence intensity measurement in a reaction of quencher removal from a fluorophore quencher–coupled DNA oligonucleotide catalyzed by Tdp1 in the presence of an inhibitor (the control samples contained 1% of DMSO). The reaction mixtures (200 μL) contained Tdp1 buffer (50 mM Tris-HCl pH 8.0, 50 mM NaCl, and 7 mM β-mercaptoethanol), 50 nM biosensor, an inhibitor being tested, and purified Tdp1 (1.5 nM). The biosensor was a single-stranded oligonucleotide (5′-[FAM] AAC GTC AGGGTC TTC C [BHQ]-3′) containing a fluorophore at the 5′ end (5,6-FAM) and Black Hole Quencher 1 (BHQ) at the 3′ end and was synthesized in the Laboratory of Biomedical Chemistry at the Institute of Chemical Biology and Fundamental Medicine (Novosibirsk, Russia).
The reactions were incubated at a constant temperature of 26 °C on a POLARstar OPTIMA fluorimeter (BMG LABTECH, GmbH, Ortenberg, Germany) to measure fluorescence every 55 s (ex. 485/em. 520 nm) during the linear phase (here, data from minute 0 to minute 8). The values of IC50 were determined using a six-point concentration response curve in three independent experiments and were calculated using MARS Data Analysis 2.0 (BMG LABTECH).

HeLa cells [1] = assay: Cytotoxicity in combination with topotecan, EZ4U assay; assay type: cell-based; conditions: for change of cytotoxicity of the compound in the presence of topotecan (synergy): compound 1, 5, 20, 100 μM with 2 μM topotecan, Figure 2; for sensitizing effect on cytotoxicity of topotecan: Figure 3
Procedure: To study the influence of the inhibitors on the cytotoxic effect of topotecan, the latter from the manufacturer ACTAVIS GROUP PTC ehf. was used. To select a nontoxic but effective concentration of the nucleoside compounds, we investigated their cytotoxicity in the presence of 2 μM topotecan (concentration causing the death of half the HeLa cells). Three independent cytotoxicity assays were performed with each inhibitor in combination with topotecan. For the cells treated with a nucleoside derivative alone, values in the control wells treated with 1% DMSO were set to 100% viability. For the cells treated with a combination of the drugs, the viability of cells treated only with topotecan was set to 100%.
(§1) Intrinsic toxicity of the compounds to human cell line HeLa (cervical cancer) was examined by means of the EZ4U Cell Proliferation and Cytotoxicity Assay (Biomedica, Wien, Austria), according to the manufacturer’s protocols. The cells were grown in Iscove’s modified Dulbecco’s medium (IMDM) with 40 μg/mL gentamicin, 50 IU/mL penicillin, 50 μg/mL streptomycin (MP Biomedicals), and 10% of fetal bovine serum (Biolot) in a 5% CO2 atmosphere. After formation of a 30–50%-confluent monolayer, one of the tested compounds was added to the medium (the volume of the added reagents was 1/100 of the total volume of the culture medium, and the amount of DMSO was 1% of the final volume), and the cell culture was monitored for 3 days. Control cells were grown in the presence of 1% DMSO. To assess the influence of the inhibitors on the cytotoxic effect of topotecan, the latter from the manufacturer ACTAVIS GROUP PTC ehf. (Bucharest, Romania) was used. First of all, 50% cytotoxic concentrations of topotecan and of each inhibitor were determined to attain a defined single-agent effect. Second, three independent tests were performed with each inhibitor in combination with topotecan.

[2] = Intrinsic cytotoxicity, EZ4U Cell Proliferation and Cytotoxicity Assay; assay type: cell-based, human; conditions: human, HeLa cells (cervical cancer), 3 days, EZ4U assay
Procedure: (§2) First, we assessed the toxicity of the compounds to HeLa cells (cervical cancer cells). Analysis of the intrinsic cytotoxicity of the compounds was examined in the EZ4U Cell Proliferation and Cytotoxicity Assay (Biomedica, Austria). The tested compounds were added to the medium (the volume of added reagents was 1/100 of the total volume of the culture medium, and the amount of DMSO (dimethyl sulfoxide) was 1% of the final volume), and the cell culture was monitored for 3 days. Control cells were grown in the presence of 1% DMSO. Intrinsic cytotoxicity of the compounds was either absent or negligible at concentrations up to 100 μM (>80% live cells) with the exception of compounds 2b, 2c, and 7, in the presence of which, at a concentration of 100 μM, 30–45% of the cells died (Table 1 and Figure 1).
as §1

HeLa cells [3] = assay: as above; assay type: cell-based, human; conditions: for cells died: compound at 100 μM, 3 days
Procedure: as §2, §1

[4] = compound at 20 μM, various doses of topotecan

Sequence of Tdp1 (Q9NUW8 whole entry): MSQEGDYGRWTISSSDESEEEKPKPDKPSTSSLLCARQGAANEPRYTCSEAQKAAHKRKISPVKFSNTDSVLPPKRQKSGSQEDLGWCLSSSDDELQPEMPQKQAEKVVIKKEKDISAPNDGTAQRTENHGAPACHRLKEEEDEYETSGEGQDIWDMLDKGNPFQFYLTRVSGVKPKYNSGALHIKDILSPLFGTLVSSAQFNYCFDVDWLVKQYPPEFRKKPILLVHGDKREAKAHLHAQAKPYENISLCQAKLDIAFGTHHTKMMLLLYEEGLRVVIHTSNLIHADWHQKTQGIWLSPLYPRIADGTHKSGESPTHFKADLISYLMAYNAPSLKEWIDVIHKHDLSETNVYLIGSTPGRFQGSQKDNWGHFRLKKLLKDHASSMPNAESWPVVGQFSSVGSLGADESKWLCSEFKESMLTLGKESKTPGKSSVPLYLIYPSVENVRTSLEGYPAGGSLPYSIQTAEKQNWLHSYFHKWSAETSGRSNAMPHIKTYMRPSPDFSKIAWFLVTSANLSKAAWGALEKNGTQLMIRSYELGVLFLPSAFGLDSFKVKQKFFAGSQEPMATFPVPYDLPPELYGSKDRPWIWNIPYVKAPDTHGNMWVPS

| Compound | IC50 (Tdp1) | change of cytotoxicity of the compound in the presence of topotecan (synergy) (HeLa cells [1]) | CC50 at 3 days [2] | other results |
| --- | --- | --- | --- | --- |
| O=c1ccn([C@@H]2O[C@H](CO)[C@@H](O)[C@H]2O)c(=O)[nH]1 [Compound 1a, Uridine, reference compound] | > 50 µM |  |  |  |
| O=c1[nH]c(=O)n([C@@H]2O[C@H](CO)[C@@H](O)[C@H]2O)cc1F [Compound 1b, 5-Fluorouridine, reference compound] | > 50 µM |  |  |  |
| O=c1[nH]c(=O)n([C@@H]2O[C@H](CO)[C@@H](O)[C@H]2O)cc1Br [Compound 1c, 5-bromouridine, reference compound] | > 50 µM |  |  |  |
| O=c1[nH]c(=O)n([C@@H]2O[C@H](CO)[C@@H](O)[C@H]2O)cc1I [Compound 1d, 5-Iodouridine, reference compound] | > 50 µM |  |  |  |
| Cc1cn([C@@H]2O[C@H](CO)[C@@H](O)[C@H]2O)c(=O)[nH]c1=O [Compound 1e, 5-Methyluridine (Ribothymidine), reference compound] | > 50 µM |  |  |  |
| O=c1[nH]c(=O)n([C@@H]2O[C@H](CO)[C@@H](O)[C@H]2O)cc1Cl [Compound 1f, 5-Chlorouridine, reference compound] | > 50 µM |  |  |  |
| O=C(OC[C@H]1O[C@@H](n2ccc(=O)[nH]c2=O)[C@H](OC(=O)c2ccccc2)[C@@H]1OC(=O)c1ccccc1)c1ccccc1 [Compound 2a, 2′,3′,5′-tri-O-benzoyluridine] | 6.3 ± 0.4 µM | Inactive |  |  |
| O=C(OCC1OC(n2cc(F)c(=O)[nH]c2=O)C(OC(=O)c2ccccc2)C1OC(=O)c1ccccc1)c1ccccc1 (stereo not shown) [Compound 2b, 2′,3′,5′-Tri-O-benzoyl-5-fluorouridine] | 8.5 ± 1.4 µM | Inactive | > 100 µM | cells died (HeLa cells [3]): 30–45% |
| O=C(OC[C@H]1O[C@@H](n2cc(Br)c(=O)[nH]c2=O)[C@H](OC(=O)c2ccccc2)[C@@H]1OC(=O)c1ccccc1)c1ccccc1 [Compound 2c, 2′,3′,5′-Tri-O-benzoyl-5-bromouridine] | 1.5 ± 0.9 µM | Inactive | > 100 µM | cells died (HeLa cells [3]): 30–45% |
| O=C(OC[C@H]1O[C@@H](n2cc(I)c(=O)[nH]c2=O)[C@H](OC(=O)c2ccccc2)[C@@H]1OC(=O)c1ccccc1)c1ccccc1 [Compound 2d, 2′,3′,5′-tri-O-benzoyl-5-iodouridine] | 0.6 ± 0.9 µM | Inactive | > 100 µM |  |
| Cc1cn([C@@H]2O[C@H](COC(=O)c3ccccc3)[C@@H](OC(=O)c3ccccc3)[C@H]2OC(=O)c2ccccc2)c(=O)[nH]c1=O [Compound 2e, 2′,3′,5′-Tri-O-benzoyl-5-methyluridine] | 2.7 ± 0.6 µM | Inactive | > 100 µM |  |
| O=C(OCC1OC(n2cc(Cl)c(=O)[nH]c2=O)C(OC(=O)c2ccccc2)C1OC(=O)c1ccccc1)c1ccccc1 (stereo not shown) [Compound 2f, 2′,3′,5′-Tri-O-benzoyl-5-chlorouridine] | 3.6 ± 1.1 µM | Inactive | > 100 µM |  |
| Cc1cc(=O)[nH]c(=O)n1[C@@H]1O[C@H](COC(=O)c2ccccc2)[C@@H](OC(=O)c2ccccc2)[C@H]1OC(=O)c1ccccc1 [Compound 2g, 2′,3′,5′-Tri-O-benzoyl-6-methyluridine] | 3.4 ± 0.2 µM | significantly (p = 0.05, Mann–Whitney U test) enhanced; also recorded: synergistic effect with topotecan; also recorded: enhanced the cytotoxicity | > 100 µM | sensitizing effect on cytotoxicity of topotecan (HeLa cells [1]; [4]): doubled the cytotoxicity of topotecan; also recorded: doubling topotecan’s activity |
| O=C(OC[C@H]1O[C@@H](n2ccc(=O)[nH]c2=O)[C@H](O)[C@@H]1O)c1ccccc1 [Compound 3a, 5′-O-benzoyluridine] | > 100 µM |  |  |  |
| O=C(O[C@@H]1[C@H](OC(=O)c2ccccc2)[C@@H](CO)O[C@H]1n1ccc(=O)[nH]c1=O)c1ccccc1 [Compound 4a, 2′,3′-di-O-benzoyluridine] | 23 ± 6 µM |  | > 100 µM |  |
| O=C(OC[C@H]1O[C@@H](n2ccc(=O)nc2)[C@H](OC(=O)c2ccccc2)[C@@H]1OC(=O)c1ccccc1)c1ccccc1 [Compound 5, 1-(2′,3′,5′-Tri-O-benzoyl-β-D-ribofuranosyl)-4-pyrimidone] | 18 ± 1 µM | significant only at the maximum concentration, 100 μM; also recorded: at a concentration of 20 μM, no synergy with topotecan was observed; also recorded: enhanced the cytotoxicity |  | sensitizing effect on cytotoxicity of topotecan (HeLa cells [1]; compound at 50 μM, various doses of topotecan (significant at 10 μM)): weak sensitizing effect |
| O=C(OC[C@H]1O[C@@H](n2cccnc2=O)[C@H](OC(=O)c2ccccc2)[C@@H]1OC(=O)c1ccccc1)c1ccccc1 [Compound 6, 1-(2′,3′,5′-Tri-O-benzoyl-β-D-ribofuranosyl)-2-pyrimidone] | 6 ± 0.7 µM | statistically insignificant | > 100 µM |  |
| COc1ccn([C@@H]2O[C@H](COC(=O)c3ccccc3)[C@@H](OC(=O)c3ccccc3)[C@H]2OC(=O)c2ccccc2)c(=O)n1 [Compound 7, 2′,3′,5′-Tri-O-benzoyl-2-oxo-4-metoxypyrimidine] | 2.91 ± 0.01 µM | significantly (p = 0.05, Mann–Whitney U test) enhanced; also recorded: synergistic effect with topotecan; also recorded: enhanced the cytotoxicity | > 100 µM | cells died (HeLa cells [3]): 30–45%; sensitizing effect on cytotoxicity of topotecan (HeLa cells [1]; [4]): doubled the cytotoxicity of topotecan; also recorded: doubling topotecan’s activity |
| Nc1ccn([C@@H]2O[C@H](COC(=O)c3ccccc3)[C@@H](OC(=O)c3ccccc3)[C@H]2OC(=O)c2ccccc2)c(=O)n1 [Compound 8, 2′,3′,5′-tri-O-benzoylcytidine] | 4.3 ± 0.7 µM | significantly (p = 0.05, Mann–Whitney U test) enhanced; also recorded: synergistic effect with topotecan; also recorded: enhanced the cytotoxicity | > 100 µM | sensitizing effect on cytotoxicity of topotecan (HeLa cells [1]; [4]): doubled the cytotoxicity of topotecan; also recorded: doubling topotecan’s activity |
| CC(=O)O[C@@H]1O[C@H](COC(=O)c2ccccc2)[C@@H](OC(=O)c2ccccc2)[C@H]1OC(=O)c1ccccc1 [Compound 9, 1-O-acetyl-2,3,5-tri-O-Bz-β-D-Rib] | 4.2 ± 0.3 µM |  |  |  |
| CC[C@@]1(O)C(=O)OCc2c1cc1n(c2=O)Cc2cc3c(CN(C)C)c(O)ccc3nc2-1 [topotecan, reference compound] |  |  |  | IC50 (HeLa cells [3]; Homo sapiens, EZ4U assay, read-out: concentration causing the death of half the HeLa cells): 2 µM |

Source: PMC7465190, “Inhibition of Tyrosyl-DNA Phosphodiesterase 1 by Lipophilic Pyrimidine Nucleosides” (Molecules, 2020)
